Patent US20030027819A1, “Beta-sheet mimetics and methods relating to the use thereof” (Molecumetics Ltd., priority 1996, published 2003)
Like-named read-outs stand apart in the source and are kept apart here.

Assays:
[1] = target: Tissue Plasminogen Activator (t-PA) (Homo sapiens, UniProt P00750); assay: t-PA inhibition assay (Ki, Example 5); format: biochemical
Method: (§1) The reaction progress curves were recorded by reading the plates, typically 60 times with 30 second to 2 minute intervals. Initial rates were determined by unweighted nonlinear least-squares fitting to a first order reaction in GraFit (Erithacus Software Limited, London, England).

Plasmin = Plasmin (Bos taurus, UniProt P06868); assay: Plasmin inhibition assay (Ki, Example 5); format: biochemical, bovine
Method: as §1

factor VII = factor VII (Homo sapiens, UniProt P08709); assay: Factor VII inhibition assay (Ki, Example 5); format: biochemical
Method: as §1
From this concentration point seven more sequential dilutions were made for the assay.

Factor XI = Factor XI (Homo sapiens, UniProt P03951); assay: Factor XI inhibition assay (Ki, Example 8); format: biochemical
Method: as §1
Factor XI. The same buffer was utilized in this assay as in the thrombin assay. […] From this 100 μM solution, seven serial 1:5 dilutions were made in buffer for assay.

urokinase = urokinase (Homo sapiens, UniProt P00749); assay: Urokinase inhibition assay (Ki, Example 5); format: biochemical
thioredoxin = assay: Insulin disulfide reduction by thioredoxin (turbidity at 650 nm); details: 8 μM thioredoxin, 0-100 μM compound, 60 minutes
Method: A slight modification of the method of Holmgren was used. on a 96 well microtiter plate solutions of thioredoxin in 0.1 M potassium phosphate pH 6.5 buffer were preactivated for 15 minutes in the presence of 0.33 mM dithiothreitol (DTT) and 2 mM EDTA.
As a positive control, the structurally related natural products parthenolide and santonin were tested in the above assay in place of the inhibitors.

[2] = target: T1, human Factor VIIa (FVIIa) and human tissue factor (TF) (Homo sapiens, UniProt P08709); assay: Factor VII assay, hydrolysis of structure (11b) as proteolytic substrate; format: biochemical; details: ratio of kcat/KM
T1 construct: 10 μl of 20 μM human Factor VIIa (FVIIa)
Method: (§2) Both the thrombin and Factor VII assays of this experiment were carried out at 37° C. using a Hitachi UV/Vis spectrophotometer (model U-3000). Structure (11b) was dissolved in deionized water. The concentration was determined from the absorbance at 342 nm. […] Initial velocities were calculated from the initial linear portion of the reaction progress curve. Kinetic parameters were determined by unweighted nonlinear least-squares fitting of the simple Michaelis-Menten equation to the experimental data using GraFit (Version 3.0, Erithacus Software Limited).
For the Factor VII assay, pH 8.0 Tris buffer (0.05 M Tris, 5 mM CaCl2, 0.15 M NaCl, 0.1% TWEEN 20, 0.1% BSA) was used. 10 μl of 20 μM human Factor VIIa (FVIIa) and 22 μM of human tissue factor (TF) was brought to assay buffer to make 160 nM FVIIa and TF solutions, respectively. […] The initial 3 minutes reaction progress curves were recorded. […] The kcat/KM was calculated from the slope and found to be 17,500 M^−1s^−1.
(§3) In both the thrombin and Factor VII assay of this experiment, (D)FPR-PNA was run as a control.

bovine thrombin = target: T2, bovine thrombin (Bos taurus, UniProt P00735); assay: Thrombin assay, hydrolysis of structure (11b) as proteolytic substrate; format: biochemical
T2 construct: 6.4 NIH units of bovine thrombin (from Sigma); purchased Sigma
Method: as §2
For the thrombin assay, experiments were performed in pH 8.4 Tris buffer (Tris, 0.05M; NaCl, 0.15M). 6.4 NIH units of bovine thrombin (from Sigma) were dissolved into 10 ml of the assay buffer to yield 10 nM thrombin solution. […] The first two minutes of the reactions were recorded for initial velocity determination.
as §3

control plasma = assay: Prothrombin time (PT) in control plasma; format: biochemical
Method: Then 200 μl of prewarmed (at 37° C. for ˜10 minutes) thromboplastin with calcium (from Sigma) was rapidly added into the plasma sample.

factor X = factor X (Bos taurus, UniProt P00743); assay: Factor X inhibition assay (Ki, Example 5), bovine plasma enzyme; format: biochemical; details: bovine plasma enzyme (Example 5 protocol)
Method: as §1, with “The hydrolysis of chromogenic substrates was monitored at 405 nm. The” for “The”
Buffer and substrate were the same as used for thrombin assay. A 1:100 dilution was made in the pH8.0 tris buffer to serve as the first point. Seven more dilutions from the first were made for the assay.

[3] = Pharmacodynamic and pharmacokinetic study in rats; format: in vivo, male Sprague Dawley rats; details: rat; for half-life: read-out: terminal halflife (converted)
Method: Specifically, a pharmacodynamic and pharmacokinetic study of structure (20b) was conducted in male Sprague Dawley rats. […] Groups of rats (n ═3 or 4) were sacrificed and exsanguinated at 0.25, 0.5, 1, 2, 4 and 8 hours following dosing. Efficacy parameters, aPTT and TT, were measured for each plasma sample.

thrombin [4] = target: T3, thrombin (Bos taurus, UniProt P00735); assay: Thrombin inhibition assay (Ki, Example 5); format: biochemical, bovine; design: thrombin; bovine plasma; 0.66; from tissue; host or cells: bovine plasma
Method: as §1
Seven sequential dilutions were made from the first point for the assay.

trypsin = target: T4, trypsin (Bos taurus, UniProt P00760); assay: Trypsin inhibition assay (Ki, Example 5); format: biochemical, bovine
T4 sequence (P00760 24-246): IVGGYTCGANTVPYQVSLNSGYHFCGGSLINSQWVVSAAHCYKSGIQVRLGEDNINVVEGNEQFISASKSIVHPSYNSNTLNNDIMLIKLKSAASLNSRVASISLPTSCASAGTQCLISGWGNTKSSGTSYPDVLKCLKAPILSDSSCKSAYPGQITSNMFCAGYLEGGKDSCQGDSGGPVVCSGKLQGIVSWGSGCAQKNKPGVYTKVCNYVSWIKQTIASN
Method: as §1

[5] = system: TNF induced V-CAM expression in human umbilical vein entothelial cells (HUVEC); assay: Inhibition of TNF induced V-CAM expression in HUVEC; format: cell-based
Method: Upon stimulation with inflammatory cytokines, HUVEC express cell surface adhesion molecules, including E-selectin, V-CAM, and I-CAM. Proteasome antagonists inhibit TNFα induced expression of these adhesion molecules, thereby providing a mechanism for regulating leucocyte adhesion and the inflammatory response.
More specifically, compounds (65), (68), (69) and (71) were assayed by the procedures set forth by Deisher, Kaushansky and Harlan (“Inhibitors of Topoisomerase II Prevent Cytokine-Induced Expression of Vascular Cell Adhesion Molecule-1, While Augmenting the Expression of Endothelial Leukocyte Adhesion Molecule-1 on Human Umbilical Vein Endothelial Cells,” Cell Adhesion Commun. 1:133-42, 1993) (incorporated herein by reference), with the exception that tetramethyl benzidine was used in place of o-phenylenediamine-peroxide.

thrombin [6] = target: T3, thrombin; assay: Thrombin inhibition by solid phase compounds of Tables 11-15; format: biochemical; design: 100 μl of 10 μM thrombin solution; details: mixtures of diastereomers; read-out: Ki as thrombin inhibitors (mark at Cpd. No.)
Method: Following extensive washing with DMF, the resin was treated with the acid fluoride of N-Fmoc-4-aminomethylbenzoic acid, or (81), or (86) and Hunigs' base in DMF until the Kaiser test was negative. Alternatively, the Fmoc-protected thiazole-(75) or imidazole-based (77) linkers were coupled to the resin using BOP, HOBt and DIEA. In some instances Fmoc-Leu or another amino acid was attached to the resin prior to the thiazole-(75) or imidazole-based (77) linkers via the same methodology. […] Following washing with DMF a dienoic acid was coupled to the resin-bound linkers using PyBOP, HOBt and Hunigs' base in DMF until the result of a Kaiser test was negative. The cycloaddition was performed by pretreatment of a solution of a pyrazolidinedione (not shown) or urazole in DMF with a solution of [bis(trifluoroacetoxy)iodo]benzene in DMF. […] The resin was then washed with DMF and CH2Cl2. Oxidation to the ketoamide was effected by treatment of the resin with a solution of Dess-Martin periodinane in DMSO for 60 min. […] The supernatant was collected and the resin was washed with additional TFA. The combined filtrates were concentrated in vacuo. The residue was precipitated with diethyl ether and the ether was decanted. The resulting solid was reconstituted in 1:1 CH3CN:H2O and lyophilized. […] The compounds were assayed for inhibition of coagulation enzymes as mixtures of diastereomers.

Sequence of factor VII (P08709 213-466 limits assumed): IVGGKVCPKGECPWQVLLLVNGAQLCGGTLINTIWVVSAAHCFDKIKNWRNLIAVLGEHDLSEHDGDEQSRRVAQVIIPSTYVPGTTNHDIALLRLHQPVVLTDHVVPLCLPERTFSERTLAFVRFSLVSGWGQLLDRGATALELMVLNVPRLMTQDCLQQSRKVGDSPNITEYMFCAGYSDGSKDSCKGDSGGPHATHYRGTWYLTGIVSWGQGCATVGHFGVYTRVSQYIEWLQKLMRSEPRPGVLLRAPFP
Sequence of factor VII (P08709 61-212 limits assumed): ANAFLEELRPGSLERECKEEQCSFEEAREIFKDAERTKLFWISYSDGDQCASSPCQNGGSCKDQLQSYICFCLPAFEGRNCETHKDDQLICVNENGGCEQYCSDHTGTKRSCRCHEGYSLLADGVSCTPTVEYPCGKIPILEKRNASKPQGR
Sequence of factor VII (P13726 33-295 partner): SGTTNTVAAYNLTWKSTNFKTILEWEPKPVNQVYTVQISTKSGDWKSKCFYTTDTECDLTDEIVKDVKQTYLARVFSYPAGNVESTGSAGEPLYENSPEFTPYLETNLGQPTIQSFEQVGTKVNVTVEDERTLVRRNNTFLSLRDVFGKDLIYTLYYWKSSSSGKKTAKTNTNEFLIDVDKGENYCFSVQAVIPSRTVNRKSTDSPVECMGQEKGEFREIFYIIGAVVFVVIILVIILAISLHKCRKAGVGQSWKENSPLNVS
Sequence of Factor XI (P03951 388-625 limits assumed): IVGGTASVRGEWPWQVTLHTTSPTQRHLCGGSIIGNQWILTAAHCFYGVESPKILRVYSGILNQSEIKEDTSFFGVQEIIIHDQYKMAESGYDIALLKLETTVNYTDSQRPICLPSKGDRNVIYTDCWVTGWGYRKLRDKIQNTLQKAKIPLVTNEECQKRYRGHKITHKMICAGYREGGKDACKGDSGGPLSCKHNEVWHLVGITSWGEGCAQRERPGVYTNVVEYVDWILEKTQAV
Sequence of Factor XI (P03951 19-387 limits assumed): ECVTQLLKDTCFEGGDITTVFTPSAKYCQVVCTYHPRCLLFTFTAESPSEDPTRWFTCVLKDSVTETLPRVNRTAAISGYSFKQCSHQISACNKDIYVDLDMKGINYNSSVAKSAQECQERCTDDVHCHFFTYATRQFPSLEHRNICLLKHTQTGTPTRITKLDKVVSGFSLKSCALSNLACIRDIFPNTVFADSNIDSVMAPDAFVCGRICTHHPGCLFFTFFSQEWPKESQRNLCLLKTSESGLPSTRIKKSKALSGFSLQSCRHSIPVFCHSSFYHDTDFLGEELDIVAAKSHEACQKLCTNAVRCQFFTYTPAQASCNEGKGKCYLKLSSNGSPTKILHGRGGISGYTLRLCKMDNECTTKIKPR
Sequence of Tissue Plasminogen Activator (t-PA) (P00750 36-562): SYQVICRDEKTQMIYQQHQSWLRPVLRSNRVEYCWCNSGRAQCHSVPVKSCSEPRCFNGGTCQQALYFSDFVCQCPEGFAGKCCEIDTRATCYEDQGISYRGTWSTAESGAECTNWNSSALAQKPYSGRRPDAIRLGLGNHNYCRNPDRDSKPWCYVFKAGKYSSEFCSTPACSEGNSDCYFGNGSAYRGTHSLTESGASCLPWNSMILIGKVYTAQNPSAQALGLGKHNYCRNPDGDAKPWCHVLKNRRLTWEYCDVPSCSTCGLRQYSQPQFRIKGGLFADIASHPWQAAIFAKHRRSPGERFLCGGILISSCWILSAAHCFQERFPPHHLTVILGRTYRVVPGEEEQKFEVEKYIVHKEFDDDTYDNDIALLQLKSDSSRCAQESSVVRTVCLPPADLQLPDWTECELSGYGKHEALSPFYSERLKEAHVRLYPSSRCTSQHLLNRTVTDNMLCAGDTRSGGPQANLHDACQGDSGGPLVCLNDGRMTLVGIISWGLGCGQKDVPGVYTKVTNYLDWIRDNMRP
Sequence of Plasmin (P06868 584-812 limits assumed): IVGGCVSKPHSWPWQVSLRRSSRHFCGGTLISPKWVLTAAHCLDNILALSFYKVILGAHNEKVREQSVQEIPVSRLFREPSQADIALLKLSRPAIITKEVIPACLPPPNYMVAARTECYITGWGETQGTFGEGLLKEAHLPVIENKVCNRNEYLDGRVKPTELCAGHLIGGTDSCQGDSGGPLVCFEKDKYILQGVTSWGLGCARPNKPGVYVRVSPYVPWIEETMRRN
Sequence of Plasmin (P06868 104-583 limits assumed): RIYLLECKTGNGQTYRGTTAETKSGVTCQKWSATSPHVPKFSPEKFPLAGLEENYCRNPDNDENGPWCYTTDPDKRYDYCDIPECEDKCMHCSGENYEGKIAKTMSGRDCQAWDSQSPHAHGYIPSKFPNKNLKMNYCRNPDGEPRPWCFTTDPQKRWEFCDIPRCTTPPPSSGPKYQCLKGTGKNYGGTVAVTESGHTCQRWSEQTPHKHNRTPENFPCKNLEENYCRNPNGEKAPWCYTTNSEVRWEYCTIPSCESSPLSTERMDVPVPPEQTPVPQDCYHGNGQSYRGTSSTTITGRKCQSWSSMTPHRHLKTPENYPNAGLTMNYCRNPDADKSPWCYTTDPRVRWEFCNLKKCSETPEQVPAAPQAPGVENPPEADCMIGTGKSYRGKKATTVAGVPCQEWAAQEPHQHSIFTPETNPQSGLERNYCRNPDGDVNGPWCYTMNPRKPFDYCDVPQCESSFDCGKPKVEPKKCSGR
Sequence of factor X (P00743 234-492 limits assumed): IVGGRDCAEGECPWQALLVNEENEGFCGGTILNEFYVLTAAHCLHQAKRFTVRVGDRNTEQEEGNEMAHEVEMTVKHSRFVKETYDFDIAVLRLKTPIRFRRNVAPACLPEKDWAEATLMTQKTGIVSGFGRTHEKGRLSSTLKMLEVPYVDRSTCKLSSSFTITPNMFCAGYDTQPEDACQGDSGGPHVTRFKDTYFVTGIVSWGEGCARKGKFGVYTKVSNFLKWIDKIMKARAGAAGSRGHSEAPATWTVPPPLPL
Sequence of factor X (P00743 41-180 limits assumed): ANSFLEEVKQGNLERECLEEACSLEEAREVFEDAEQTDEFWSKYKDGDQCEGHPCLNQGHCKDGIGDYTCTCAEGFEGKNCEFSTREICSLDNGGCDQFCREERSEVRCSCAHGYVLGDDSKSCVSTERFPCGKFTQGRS
T1 sequence (P08709 213-466 limits assumed): as the sequence (P08709 213-466 limits assumed) above
T1 sequence (P08709 61-212 limits assumed): as the sequence (P08709 61-212 limits assumed) above
T1 sequence (P13726 33-295 partner): as the sequence (P13726 33-295 partner) above

N=C(N)NCCC[C@H](NC(=O)[C@@H]1CCN2CC[C@@](N)(Cc3ccccc3)C(=O)N12)C(=O)c1nc2ccccc2s1 [20^b]
Ki ([1]; read-out: Ki tPA (tissue Plasminogen Activator)): 495 nM
Ki (Plasmin): 415 nM
Ki (factor VII): 270 nM
Ki (Factor XI): 27 nM
Ki (urokinase): 600 nM

CC1=C2[C@H]3OC(=O)[C@@H](C)[C@@H]3CC[C@@]2(C)C=CC1=O [Santonin, reference compound]
thioredoxin-induced turbidity of insulin at 650 nM (thioredoxin): did not block thioredoxin-induced turbidity of insulin

N=C(N)NCCC[C@H](NC(=O)[C@@H]1CCN2CC[C@@](N)(Cc3ccccc3)C(=O)N12)C(=O)Nc1ccc([N+](=O)[O-])cc1 [Structure 11b]
Activity compared to the control (D)FPR-PNA [2]: 1.38
kcat (bovine thrombin; substrate hydrolysis, pH 8.4 Tris, 37° C.): 50 s⁻¹
Activity compared to the control (D)FPR-PNA (bovine thrombin; thrombin, ratio of kcat/KM): 0.76

N=C(N)NCCC[C@H](NC(=O)[C@@H]1CCN2CC[C@@](N)(Cc3ccccc3)C(=O)N12)C(=O)CCl [Structure 13b]
PT (control plasma; Concentration 1 pM): 13 s
PT (control plasma; Concentration 10 pM): 17 s
PT (control plasma; Concentration 50 pM): 18 s
PT (control plasma; Concentration 100 pM): 23 s
PT (control plasma; Concentration 200 pM): 24 s
PT (control plasma; Concentration 500 pM): 27 s
PT (control plasma; Concentration 1 nM): 30 s
PT (control plasma; Concentration 10 nM): 31 s
PT (control plasma; Concentration 30 nM): 31 s
PT (control plasma; Concentration 50 nM): 30 s
PT (control plasma; Concentration 80 nM): 33 s

N=C(N)NCCC[C@H](NC(=O)[C@@H]1CCN2CC[C@@](N)(Cc3ccccc3)C(=O)N12)C(=O)c1nc2ccccc2s1 [Structure 20b]
Ki ([1]; read-out: Ki t-PA): 495 nM
Ki (Plasmin): 415 nM
Ki (factor X): 966 nM
Ki (factor VII): 270 nM
Ki (Factor XI): 27 nM
Ki (urokinase): 600 nM
half-life ([3]; male, Sprague Dawley, plasma, 4 mg/kg IV): 7.5 h
bioavailability ([3]; male, Sprague Dawley, plasma, 10 mg/kg PO vs 4 mg/kg IV, read-out: bioavailability of orally administered compound): ~27%
half-life ([3]; male, Sprague Dawley, plasma, 10 mg/kg PO): 4.5 h
Efficacy parameters aPTT and TT (FIGS. 4A and 4B) ([3]; 4 mg/kg IV and 10 mg/kg PO): in vivo efficacy

N=C(N)NCCC[C@H](NC(=O)[C@@H]1CC[C@@H]2CC[C@](N)(Cc3ccccc3)C(=O)N21)C(=O)c1nc2ccccc2s1 [Structure 29a]
Ki (thrombin [4]): 10.4 nM
Ki (factor X): 4600 nM
Ki (trypsin): 0.54 nM
Ki (factor VII): 1800 nM
Ki (Factor XI): 391 nM

O=C(CCl)c1cccc2c1C(=O)N(c1ccccc1)C2=O [Structure 65]
IC50 [5]: 9600 ± 100 nM

O=C(CCl)C1CCCn2c(=O)n(-c3ccccc3)c(=O)n21 (stereo not drawn) [Structure 68]
IC50 [5]: 14200 ± 800 nM

CC1C=CC(C=O)n2c(=O)n(-c3ccccc3)c(=O)n21 (stereo not drawn) [Structure 69]
IC50 [5]: 32400 ± 1700 nM

COC(=O)C#CC(O)c1cccc2c1C(=O)N(c1ccccc1)C2=O (stereo not drawn) [Structure 71]
IC50 [5]: 4900 ± 180 nM

CC1=CC(C(=O)NC(CCCNC(=N)N)C(=O)c2nc(C(N)=O)c[nH]2)n2c(=O)n(CC(c3ccccc3)c3ccccc3)c(=O)n2C1 (stereo not drawn) [Structure 201]
Ki (thrombin [6]): < 10 nM

CC1=CC(C(=O)NC(CCCNC(=N)N)C(=O)c2nc3ccccc3s2)n2c(=O)n(Cc3ccccc3)c(=O)n2C1 (stereo not drawn) [Structure 211]
Ki (thrombin [6]): < 10 nM

CC1=CC(C(=O)NC(CCCNC(=N)N)C(=O)c2nc3ccccc3s2)n2c(=O)n(CC(c3ccccc3)c3ccccc3)c(=O)n2C1 (stereo not drawn) [Structure 215]
Ki (thrombin [6]): < 10 nM

CC1=CC(C(=O)NCC2CCC(N)CC2)n2c(=O)n(CCS(=O)(=O)c3ccccc3)c(=O)n2C1 (stereo not drawn) [Structure 221-5]
Ki (thrombin [6]): < 10 nM

CC1=CC(C(=O)NCC2CCC(C(=N)N)CC2)n2c(=O)n(CC(c3ccccc3)c3ccccc3)c(=O)n2C1 (stereo not drawn) [Structure 221-18]
Ki (thrombin [6]): < 10 nM

CC1=CC(C(=O)NC(CCCCN)C(=O)C(=O)NCCc2ccc(C(N)=O)cc2)n2c(=O)n(Cc3cc(F)ccc3F)c(=O)n2C1 (stereo not drawn) [Structure 222]
Ki (thrombin [6]): < 10 nM

CC1=CC(C(=O)NC(CCCCN)C(=O)C(=O)NCc2ccc(C(=O)NCCc3ccccc3)cc2)n2c(=O)n(Cc3cc(F)ccc3F)c(=O)n2C1 (stereo not drawn) [Structure 223]
Ki (thrombin [6]): < 10 nM

CC1=CC(C(=O)NC(CCCNC(=N)N)C(=O)c2nc3ccccc3s2)n2c(=O)n(Cc3ccccc3)c(=O)n2C1 (stereo not drawn) [Structure 224]
Ki (thrombin [6]): < 10 nM

CC(C)(C)CC1C=CC(C(=O)NC(CCCCN)C(=O)C(=O)NCCc2ccc(C(N)=O)cc2)n2c(=O)n(Cc3cc(F)ccc3F)c(=O)n21 (stereo not drawn) [Structure 225]
Ki (thrombin [6]): < 10 nM

NCCCCC(NC(=O)C1C=C2CCCCC2n2c(=O)n(Cc3cc(F)ccc3F)c(=O)n21)C(=O)C(=O)NCCCc1ccc(C(N)=O)cc1 (stereo not drawn) [Structure 226]
Ki (thrombin [6]): < 10 nM

COC(=O)C#CC(O)C1C=CC(C)n2c(=O)n(-c3ccccc3)c(=O)n21 (stereo not drawn) [Structure 231]
thioredoxin-induced turbidity of insulin at 650 nM (thioredoxin): turbidity decreases with increasing concentration

COC(=O)/C=C/C(=O)C1C=CC(C)n2c(=O)n(-c3ccccc3)c(=O)n21 (stereo not drawn) [Structure 233]
thioredoxin-induced turbidity of insulin at 650 nM (thioredoxin): turbidity decreases with increasing concentration
